One assay has as its target Hmdm2 (Homo sapiens, UniProt Q00987). The assay can be described thus: Selectivity (% A in 1 μM), ubiquitin ligase activity of Hmdm2. The format is biochemical. The following applies: read-out: Selectivity (% A* in 1 μM) Hmdm2.
The target in the next assay is T1, POSH (Homo sapiens, UniProt Q7Z6J0).
T1 construct: GST-POSH lot NB81/p.118 3.6 mg/ml; fused on or other part: GST tag, used for detection with anti-GST XL665
T1 sequence (Q7Z6J0 1-269 limits assumed): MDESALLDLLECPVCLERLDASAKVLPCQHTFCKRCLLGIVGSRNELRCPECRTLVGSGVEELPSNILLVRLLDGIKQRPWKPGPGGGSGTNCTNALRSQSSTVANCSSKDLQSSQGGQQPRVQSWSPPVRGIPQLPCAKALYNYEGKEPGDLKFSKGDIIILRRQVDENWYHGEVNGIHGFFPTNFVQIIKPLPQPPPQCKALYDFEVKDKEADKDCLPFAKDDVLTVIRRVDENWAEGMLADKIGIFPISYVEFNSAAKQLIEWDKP
The assay can be described thus: Selectivity (% A in 1 μM), ubiquitin ligase activity of POSH. The assay is classed as biochemical. The note with it: read-out: Selectivity (% A* in 1 μM) POSH. How it is done:
Experimental Protocols: 1. HTS Screening Assay Procedure • Microplates 10109D to 10114D compounds at 1 mM. • (Controls in column 1). • All compounds were perchase from ChemBridge corporation: ChemBridge corporation 16981 Via Tazon, Suite G San Diego, Calif. 92127 a. Microplates Labeling • Put labels to 6 PS U-bottom clear microplate. • Put labels to 18 black microplates (triplicats). b. Microplates Preparation • Put 100 μl GST-POSH at 33 nM in wells of the clear PS U-bottom microplates (exept wells A1-D1). • Negative control: place 100 μl dH2O in wells A1-D1. • (Positive control: place 100 μl GST-POSH at 33 nM in wells E1-H1). • Put 8 μl enzymes solution ×4 to black microplates (column 1 to 11). c. Incubation of E3 with Compounds • Transfer 5 μl of compounds (at 1 mM) to the microplates containing 100 μl GST-POSH. • Add 5 μl of DMSO to controls column 1. • Incubation 30 minutes at RT. d. […] 2. […] Microplates Labeling • Put labels to 4 clear PP clear microplate (18.2 μM, 9.1 uM, 1.82 uM, 910 nM,). • Put labels to 5 clear PS U-bottom clear microplate 4.44 μM, 909, 444, 91 and 44 nM) • Put labels to 15 black microplates (triplicates). f. Original Microplate Dilutions • Put DMSO 40 μl to (18.2 μM, 1.82 uM plates) and 20 ul to (9.1 uM, 910 nM plates. • Mix by pipetation the original microplate (3× up and down 45 μl). • Transfer 10 μl of compounds from the original microplate (at 91 μM) to the next microplate (=18.2 μM) on splitting apparatus. • Mix by pipetation the 18.2 uM microplate (3× up and down 45 μl). • Transfer 20 μl of compounds from the 18.2 uM microplate to the next microplate (=9.1 μM) on splitting apparatus. • Mix by pipetation the 9.1 uM microplate (3× up and down 45 μl). • Transfer 10 μl of compounds from the 9.1 uM microplate to the next microplate (=1.82 μM) on splitting apparatus. • Mix by pipetation the 1.82 uM microplate (3× up and down 45 μl). • Transfer 20 μl of compounds from the 1.82 uM microplate to the next microplate (=910 nM) on splitting apparatus • Mix by pipetation. g. Microplates Preparation • Put 123 μl GST-POSH at 33 nM in wells of the 5 clear PS U-bottom clear microplates. • Positive control: place 123 μl GST-POSH at 33 nM in well A12-h12 13 μl DMSO. • Negative control: place 123 μl dH2O in well B1 and 13 μl DMSO. • Put 8 μl enzymes solution ×4 to 15 black microplates. • Controls: put 8 μl enzymes solution ×4 to wells A1 to F1. h. Incubation of POSH with Compounds • Take 7 μl of compounds at original plate (91 μM) and put into the 4.44 μM labeled microplate containing 123 μl GST-POSH, on splitting apparatus. • Mix by pipetation (3× up and down 115 μl), note time. • Take 7 μl of compounds at 18.2 μM and put into the 910 nM labeled microplate containing 123 μl GST-POSH, on splitting apparatus. • Mix by pipetation (3× up and down 115 μl), note time. • Take 7 μl of compounds at 9.1 μM and put into the 444 nM labeled microplate containing 123 μl GST-POSH, on splitting apparatus. • Mix by pipetation (3× up and down 115 μl), note time. • Take 7 μl of compounds at […] and put into the 91 nM labeled microplate containing 123 μl GST-POSH, on splitting apparatus. • Mix by pipetation (3× up and down 115 μl), note time. • Take 7 μl of compounds at 91.0 nM and put into the 44 nM labeled microplate containing 123 μl GST-POSH, on splitting apparatus. • Mix by pipetation (3× up and down 115 μl), note time. • Incubation 30 minutes at RT. i.

Setting [1] is: % activity at 1 μM compound, control is related to 100% activity, HTS protocol.

The record followed here is patent US7659277B2, “Ubiquitin ligase inhibitors and methods related thereto” (Proteologies, Ltd., priority 2003, dated 2010).

Read-outs that look alike come from different tables or passages of the source.

Sequence of Hmdm2 (Q00987 whole entry): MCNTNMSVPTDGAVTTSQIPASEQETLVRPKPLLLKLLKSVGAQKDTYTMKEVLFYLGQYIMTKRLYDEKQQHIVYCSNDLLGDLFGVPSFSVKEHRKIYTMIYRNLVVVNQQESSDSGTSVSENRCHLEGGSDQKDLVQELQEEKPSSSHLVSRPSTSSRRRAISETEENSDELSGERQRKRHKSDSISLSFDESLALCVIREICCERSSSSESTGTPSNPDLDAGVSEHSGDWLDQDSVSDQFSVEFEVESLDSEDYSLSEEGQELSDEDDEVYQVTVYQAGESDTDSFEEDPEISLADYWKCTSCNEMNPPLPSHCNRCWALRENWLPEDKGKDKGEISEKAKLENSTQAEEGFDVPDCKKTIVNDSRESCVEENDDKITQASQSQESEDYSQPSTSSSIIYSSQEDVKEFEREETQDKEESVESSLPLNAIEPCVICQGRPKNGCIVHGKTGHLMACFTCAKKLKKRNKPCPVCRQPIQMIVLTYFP

`COc1ccccc1N1C(=O)NC(=O)/C(=C\C=C\c2ccccc2)C1=O` [Compound 10]: the values for the remaining activity at 1 µM on Hmdm2 (setting [1]) and at POSH (setting [1]) were 116% and 15%, respectively.
In the same order, the values of `CC(C)Oc1ccc(/C=C2/SC(=S)NC2=O)cc1` [Compound 26] are 98% and 69%.
In the same order, the values of `Oc1c(Br)cc(Br)cc1/C=N/c1nc2ccccc2s1` [Compound 62] are 120% and 37%.
In the case of `O=C1/C(=C\c2cccc([N+](=O)[O-])c2)Sc2ccccc21` [Compound 52], the remaining activity at 1 µM on Hmdm2 (setting [1]) was 107%; on POSH (setting [1]) it was 80%.
In the case of `Cc1ccc2nc(-c3ccc(/N=C/c4ccc([N+](=O)[O-])s4)cc3)sc2c1` [Compound 72], the remaining activity at 1 µM on Hmdm2 (setting [1]) came to 124%; at POSH (setting [1]), 39%.
Turning to `O=C1C=CC(=O)N1c1ccc(Cl)cc1` [Compound 19], the remaining activity at 1 µM on Hmdm2 was 100%; on POSH, 39%.
As for `O=C1/C(=C\c2ccc(Cl)c([N+](=O)[O-])c2)Sc2ccccc21` [Compound 50], the remaining activity at 1 µM at Hmdm2 (setting [1]) was determined as 98%; at POSH (setting [1]), 39%.
